Test results reported in ChEMBL document CHEMBL3421577, “Discovery and biological evaluation of tetrahydrothieno[2,3-c]pyridine derivatives as selective metabotropic glutamate receptor 1 antagonists for the potential treatment of neuropathic pain” (Eur J Med Chem, 2015).

Tests used:
[1] = target: B2 bradykinin receptor (Homo sapiens) (UniProt P30411); assay: Antagonist activity at BDKR2 (unknown origin) at 10 uM relative to control
[2] = target: C-C chemokine receptor type 2 (Homo sapiens) (UniProt P41597); assay: Agonist activity at CCR2B (unknown origin) at 12.5 uM relative to control
[3] = target: Cannabinoid receptor 1 (Homo sapiens) (UniProt P21554); assay: Agonist activity at CB1 receptor (unknown origin) at 12.5 uM relative to control
[4] = Terminal half life in Sprague-Dawley rat at 10 mg/kg, po by LC-MS/MS analysis; assay type: ADME, organism-based; design: dose 10 mg/kg, route oral; details: in vivo, read-out: beta t1/2
[5] = target: C-X-C chemokine receptor type 2 (Homo sapiens) (UniProt P25025); assay: Agonist activity at CXCR2 (unknown origin) at 12.5 uM relative to control
CYP2C9 = CYP2C9 (Homo sapiens, UniProt P11712); assay: Inhibition of recombinant human CYP2C9 assessed as remaining activity at 10 uM preincubated for 5 mins followed by substrate and NADP addition measured after 20 mins by fluorescence assay relative to control; assay type: ADME; details: read-out: Activity
[6] = target: Muscarinic acetylcholine receptor M1 (Homo sapiens) (UniProt P11229); assay: Agonist activity at M1 receptor (unknown origin) at 12.5 uM relative to control
[7] = target: C-X-C chemokine receptor type 5 (Homo sapiens) (UniProt P32302); assay: Antagonist activity at CXCR5 (unknown origin) at 10 uM relative to control
[8] = Bioavailability in Sprague-Dawley rat at 10 mg/kg, iv by LC-MS/MS analysis; assay type: ADME, organism-based; details: in vivo
[9] = target: C-X-C chemokine receptor type 4 (Homo sapiens) (UniProt P61073); assay: Agonist activity at CXCR4 (unknown origin) at 12.5 uM relative to control
[10] = target: T1, Metabotropic glutamate receptor 1 (Homo sapiens, UniProt Q13255); assay: Antagonist activity at mGlu1 receptor (unknown origin) at 10 uM relative to control
[11] = AUClast in Sprague-Dawley rat at 10 mg/kg, iv by LC-MS/MS analysis; assay type: ADME, organism-based; design: time 0 - last, dose 10 mg/kg, route intravenous; details: plasma
[12] = AUClast in Sprague-Dawley rat at 10 mg/kg, po by LC-MS/MS analysis; assay type: ADME, organism-based; design: time 0 - last, dose 10 mg/kg, route oral; details: plasma
[13] = target: Alpha-1A adrenergic receptor (Homo sapiens) (UniProt P35348); assay: Antagonist activity at ADRA1A (unknown origin) at 10 uM relative to control
Rattus norvegicus = assay: Analgesic activity in rat spinal nerve ligation model of neuropathic pain assessed as recovery from mechanical allodynia at 100 mg/kg, po administered on day 14 post ligation surgery measured after 3 hrs relative to control; assay type: functional
[14] = target: C-X-C chemokine receptor type 5 (Homo sapiens) (UniProt P32302); assay: Agonist activity at CXCR5 (unknown origin) at 12.5 uM relative to control
[15] = target: C-C chemokine receptor type 4 (Homo sapiens) (UniProt P51679); assay: Agonist activity at CCR4 (unknown origin) at 12.5 uM relative to control
[16] = Plasma concentration in Sprague-Dawley rat at 10 mg/kg, po measured at 8 hrs by LC-MS/MS analysis; assay type: ADME, organism-based; design: dose 10 mg/kg, route oral
[17] = Total clearance in Sprague-Dawley rat at 10 mg/kg, iv by LC-MS/MS analysis; assay type: ADME, organism-based; design: dose 10 mg/kg, route intravenous; details: in vivo
[18] = target: 5-hydroxytryptamine receptor 2C (Homo sapiens) (UniProt P28335); assay: Agonist activity at 5HT2C receptor (unknown origin) at 12.5 uM relative to control
[19] = target: C-X-C chemokine receptor type 2 (Homo sapiens) (UniProt P25025); assay: Antagonist activity at CXCR2 (unknown origin) at 10 uM relative to control
[20] = target: T1, Metabotropic glutamate receptor 1; assay: Antagonist activity at human mGluR1 expressed in human Chem-3 cells assessed as inhibition of L-glutamate-induced calcium release at 10 uM by calcium-5 reagent-based fluorescence assay relative to control; assay type: functional, cell-based
[21] = Cmax in Sprague-Dawley rat at 10 mg/kg, po by LC-MS/MS analysis; assay type: ADME, organism-based; design: dose 10 mg/kg, route oral; details: in vivo
[22] = Metabolic stability in human liver microsomes assessed as compound remaining at 1 uM after 30 mins by LC-MS/MS analysis in presence of NADPH; assay type: ADME; details: read-out: Stability
[23] = target: T1, Metabotropic glutamate receptor 1; assay: Agonist activity at mGlu1 receptor (unknown origin) at 12.5 uM relative to control
[24] = target: 5-hydroxytryptamine receptor 2A (Homo sapiens) (UniProt P28223); assay: Antagonist activity at 5HT2A receptor (unknown origin) at 10 uM relative to control
[25] = target: Substance-P receptor (Homo sapiens) (UniProt P25103); assay: Antagonist activity at NK1 receptor (unknown origin) at 10 uM relative to control
[26] = target: C-X-C chemokine receptor type 4 (Homo sapiens) (UniProt P61073); assay: Antagonist activity at CXCR4 (unknown origin) at 10 uM relative to control
[27] = target: Metabotropic glutamate receptor 5 (Homo sapiens, UniProt P41594); assay: Antagonist activity at human mGluR5 expressed in human embryonic kidney cells assessed as inhibition of L-glutamate-induced calcium release at 10 uM by calcium-5 reagent-based fluorescence assay relative to control; assay type: functional, cell-based
[28] = Drug uptake in Sprague-Dawley rat brain at 10 mg/kg, iv measured at 2 hrs by LC-MS/MS analysis; assay type: ADME, organism-based; design: dose 10 mg/kg, route intravenous; details: read-out: Drug uptake
[29] = target: Muscarinic acetylcholine receptor M1 (Homo sapiens) (UniProt P11229); assay: Antagonist activity at M1 receptor (unknown origin) at 10 uM relative to control
[30] = Drug excretion in Sprague-Dawley rat at 10 mg/kg, iv by LC-MS/MS analysis; assay type: ADME, organism-based; design: dose 10 mg/kg, route intravenous; details: in vivo, read-out: Drug excretion

T1 sequence (Q13255 19-1194 limits assumed): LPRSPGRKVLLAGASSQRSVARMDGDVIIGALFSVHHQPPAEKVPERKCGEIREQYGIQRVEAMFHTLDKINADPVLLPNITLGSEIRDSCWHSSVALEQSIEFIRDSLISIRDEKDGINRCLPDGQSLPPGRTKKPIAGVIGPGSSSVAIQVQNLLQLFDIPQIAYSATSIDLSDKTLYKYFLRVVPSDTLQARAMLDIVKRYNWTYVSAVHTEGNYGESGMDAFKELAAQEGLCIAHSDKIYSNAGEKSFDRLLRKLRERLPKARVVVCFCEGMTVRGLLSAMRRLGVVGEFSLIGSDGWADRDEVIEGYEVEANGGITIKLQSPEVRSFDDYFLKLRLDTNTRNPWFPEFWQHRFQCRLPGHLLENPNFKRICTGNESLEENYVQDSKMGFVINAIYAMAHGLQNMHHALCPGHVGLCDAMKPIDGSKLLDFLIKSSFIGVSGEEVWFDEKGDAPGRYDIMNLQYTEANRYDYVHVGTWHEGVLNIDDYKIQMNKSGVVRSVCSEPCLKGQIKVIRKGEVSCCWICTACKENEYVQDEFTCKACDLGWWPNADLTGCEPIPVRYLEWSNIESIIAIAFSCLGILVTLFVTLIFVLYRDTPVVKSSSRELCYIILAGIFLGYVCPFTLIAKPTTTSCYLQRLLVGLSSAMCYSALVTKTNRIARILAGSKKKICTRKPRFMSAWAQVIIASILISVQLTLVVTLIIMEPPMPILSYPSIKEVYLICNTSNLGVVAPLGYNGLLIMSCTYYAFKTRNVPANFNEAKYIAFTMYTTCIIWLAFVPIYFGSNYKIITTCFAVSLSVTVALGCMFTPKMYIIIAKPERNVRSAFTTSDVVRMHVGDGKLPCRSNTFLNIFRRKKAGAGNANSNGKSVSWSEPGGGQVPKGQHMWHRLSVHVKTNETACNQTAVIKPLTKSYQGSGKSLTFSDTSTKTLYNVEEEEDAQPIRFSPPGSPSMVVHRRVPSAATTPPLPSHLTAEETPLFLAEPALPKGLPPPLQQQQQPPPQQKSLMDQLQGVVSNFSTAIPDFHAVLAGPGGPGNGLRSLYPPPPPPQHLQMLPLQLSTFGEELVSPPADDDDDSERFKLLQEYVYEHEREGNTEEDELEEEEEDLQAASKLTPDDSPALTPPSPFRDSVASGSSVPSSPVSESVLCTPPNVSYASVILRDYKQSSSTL
Sequence of Muscarinic acetylcholine receptor M1 (Homo sapiens) (P11229 whole entry): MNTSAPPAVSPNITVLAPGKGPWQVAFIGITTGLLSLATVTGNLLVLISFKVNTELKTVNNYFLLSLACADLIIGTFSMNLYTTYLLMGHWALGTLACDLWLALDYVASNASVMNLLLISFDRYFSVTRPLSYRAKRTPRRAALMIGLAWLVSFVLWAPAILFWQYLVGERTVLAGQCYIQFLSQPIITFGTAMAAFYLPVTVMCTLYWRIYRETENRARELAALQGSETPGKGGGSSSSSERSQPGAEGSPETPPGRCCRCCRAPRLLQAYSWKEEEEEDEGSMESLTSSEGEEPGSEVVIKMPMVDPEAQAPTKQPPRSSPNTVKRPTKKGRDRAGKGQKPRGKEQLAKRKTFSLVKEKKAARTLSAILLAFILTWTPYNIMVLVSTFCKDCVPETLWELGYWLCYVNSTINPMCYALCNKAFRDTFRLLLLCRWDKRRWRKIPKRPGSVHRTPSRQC
Sequence of C-X-C chemokine receptor type 5 (Homo sapiens) (P32302 whole entry): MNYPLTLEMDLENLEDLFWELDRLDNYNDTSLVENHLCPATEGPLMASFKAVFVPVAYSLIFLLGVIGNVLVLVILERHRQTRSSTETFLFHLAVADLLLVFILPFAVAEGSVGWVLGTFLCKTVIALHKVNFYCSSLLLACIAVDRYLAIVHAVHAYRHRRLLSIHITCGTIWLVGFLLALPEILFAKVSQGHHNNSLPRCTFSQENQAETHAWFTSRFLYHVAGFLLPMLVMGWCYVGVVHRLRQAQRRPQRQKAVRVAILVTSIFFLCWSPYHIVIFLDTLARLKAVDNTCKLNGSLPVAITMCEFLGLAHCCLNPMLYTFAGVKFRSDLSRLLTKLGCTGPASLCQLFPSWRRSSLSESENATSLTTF
Sequence of C-X-C chemokine receptor type 4 (Homo sapiens) (P61073 whole entry): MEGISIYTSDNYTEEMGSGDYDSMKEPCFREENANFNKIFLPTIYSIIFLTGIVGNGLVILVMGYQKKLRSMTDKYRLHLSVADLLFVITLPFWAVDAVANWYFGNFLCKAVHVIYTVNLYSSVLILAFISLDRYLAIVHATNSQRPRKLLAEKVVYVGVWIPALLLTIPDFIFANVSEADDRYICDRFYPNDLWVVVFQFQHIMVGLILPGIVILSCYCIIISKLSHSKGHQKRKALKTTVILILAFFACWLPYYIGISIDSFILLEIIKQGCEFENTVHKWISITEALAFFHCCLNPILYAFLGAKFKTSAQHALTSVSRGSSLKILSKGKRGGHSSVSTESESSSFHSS
Sequence of C-X-C chemokine receptor type 2 (Homo sapiens) (P25025 whole entry): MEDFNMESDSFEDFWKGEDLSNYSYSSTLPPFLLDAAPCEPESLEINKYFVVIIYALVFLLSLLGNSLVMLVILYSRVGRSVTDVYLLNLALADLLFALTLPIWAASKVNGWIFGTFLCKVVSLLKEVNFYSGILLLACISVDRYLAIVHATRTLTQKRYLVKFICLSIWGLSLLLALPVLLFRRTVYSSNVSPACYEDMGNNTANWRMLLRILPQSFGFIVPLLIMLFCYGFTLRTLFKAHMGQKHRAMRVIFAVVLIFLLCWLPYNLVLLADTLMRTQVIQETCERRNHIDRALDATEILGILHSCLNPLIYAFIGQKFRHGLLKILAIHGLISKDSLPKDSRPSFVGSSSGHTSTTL
Sequence of B2 bradykinin receptor (Homo sapiens) (P30411 whole entry): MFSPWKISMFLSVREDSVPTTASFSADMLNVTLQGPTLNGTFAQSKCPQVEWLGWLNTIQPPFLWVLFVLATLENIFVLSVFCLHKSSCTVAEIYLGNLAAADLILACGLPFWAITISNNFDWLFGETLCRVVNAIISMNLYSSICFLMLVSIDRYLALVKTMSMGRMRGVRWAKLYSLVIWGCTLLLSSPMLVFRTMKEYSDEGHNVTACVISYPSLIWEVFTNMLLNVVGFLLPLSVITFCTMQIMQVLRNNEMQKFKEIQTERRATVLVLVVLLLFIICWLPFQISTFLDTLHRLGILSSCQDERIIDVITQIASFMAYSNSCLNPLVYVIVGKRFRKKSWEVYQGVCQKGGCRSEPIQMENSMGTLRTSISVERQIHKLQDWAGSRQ
Sequence of Cannabinoid receptor 1 (Homo sapiens) (P21554 whole entry): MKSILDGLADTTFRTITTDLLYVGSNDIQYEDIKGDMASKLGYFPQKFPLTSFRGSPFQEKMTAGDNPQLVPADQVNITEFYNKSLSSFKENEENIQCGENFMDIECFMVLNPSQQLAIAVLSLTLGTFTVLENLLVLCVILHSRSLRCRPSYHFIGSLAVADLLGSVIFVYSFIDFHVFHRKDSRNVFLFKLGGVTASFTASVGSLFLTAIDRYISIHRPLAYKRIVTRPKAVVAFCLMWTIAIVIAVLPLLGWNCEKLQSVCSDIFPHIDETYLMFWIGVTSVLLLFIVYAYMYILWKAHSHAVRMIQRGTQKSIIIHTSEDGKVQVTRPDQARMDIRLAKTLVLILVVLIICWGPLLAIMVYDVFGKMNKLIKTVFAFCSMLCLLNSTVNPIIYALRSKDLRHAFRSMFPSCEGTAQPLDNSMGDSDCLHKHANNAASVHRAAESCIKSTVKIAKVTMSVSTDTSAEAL
Sequence of Metabotropic glutamate receptor 5 (P41594 21-1212 limits assumed): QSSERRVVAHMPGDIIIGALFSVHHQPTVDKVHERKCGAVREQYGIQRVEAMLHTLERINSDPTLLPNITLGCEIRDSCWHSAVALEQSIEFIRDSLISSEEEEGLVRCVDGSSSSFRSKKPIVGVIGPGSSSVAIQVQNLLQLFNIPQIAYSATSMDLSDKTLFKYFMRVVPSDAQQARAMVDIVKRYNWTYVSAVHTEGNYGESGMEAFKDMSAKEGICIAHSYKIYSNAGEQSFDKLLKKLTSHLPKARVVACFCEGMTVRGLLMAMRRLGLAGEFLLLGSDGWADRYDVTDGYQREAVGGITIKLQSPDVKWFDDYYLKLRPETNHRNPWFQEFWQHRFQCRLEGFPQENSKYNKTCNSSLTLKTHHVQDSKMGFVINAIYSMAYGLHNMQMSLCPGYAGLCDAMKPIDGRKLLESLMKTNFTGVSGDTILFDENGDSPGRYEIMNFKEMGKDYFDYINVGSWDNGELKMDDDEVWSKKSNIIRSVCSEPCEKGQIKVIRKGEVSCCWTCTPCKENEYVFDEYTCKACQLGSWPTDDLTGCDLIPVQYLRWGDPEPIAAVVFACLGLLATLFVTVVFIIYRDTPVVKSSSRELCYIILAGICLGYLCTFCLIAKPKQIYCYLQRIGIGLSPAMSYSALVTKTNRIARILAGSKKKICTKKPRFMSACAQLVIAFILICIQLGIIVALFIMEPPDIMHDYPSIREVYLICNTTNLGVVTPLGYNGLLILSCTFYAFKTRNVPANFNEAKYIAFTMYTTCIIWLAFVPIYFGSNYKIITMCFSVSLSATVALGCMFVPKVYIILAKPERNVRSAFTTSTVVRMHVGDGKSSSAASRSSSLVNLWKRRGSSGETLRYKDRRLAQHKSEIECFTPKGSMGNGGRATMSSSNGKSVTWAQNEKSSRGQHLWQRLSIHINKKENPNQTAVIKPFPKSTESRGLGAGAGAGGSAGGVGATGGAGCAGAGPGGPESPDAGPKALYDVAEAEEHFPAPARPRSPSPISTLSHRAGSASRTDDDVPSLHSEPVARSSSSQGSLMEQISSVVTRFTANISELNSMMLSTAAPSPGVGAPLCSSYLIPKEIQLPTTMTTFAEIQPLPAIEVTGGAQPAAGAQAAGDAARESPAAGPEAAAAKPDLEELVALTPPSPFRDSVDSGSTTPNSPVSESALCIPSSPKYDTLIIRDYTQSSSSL

For `Cc1cc(C(=O)N2CCc3c(sc(NCc4ccccc4)c3C#N)C2)[nH]n1`, which inhibition [1] is on record?
Its inhibition is 10.3%.

What about the Activity [2] of the same molecule?
The Activity was -1.4%.

What about the Activity [3] of the same molecule?
The Activity was 0.3%.

And the half-life [4]?
Its half-life is 1.48 h.

And the Activity [5]?
The Activity was -0.9%.

And the activity at 20 min, 10 µM (CYP2C9)?
Its activity at 20 min, 10 µM is 6.77%.

And the Activity [6]?
Its Activity is -0.5%.

And the inhibition [7]?
Its inhibition is 4.5%.

And the bioavailability [8]?
Its bioavailability is 45.8%.

And the Activity [9]?
Its Activity is -3.1%.

And the inhibition [10]?
The inhibition was 104%.

And the AUC(0-t) [11]?
Its AUC(0-t) is 9060 ng·h/mL.

What about the AUC(0-t) [12] of the same molecule?
Its AUC(0-t) is 4090 ng·h/mL.

What about the inhibition [13] of the same molecule?
Its inhibition is 9.2%.

What about the Activity (Rattus norvegicus) of the same molecule?
The Activity was 60%.

And the Activity [14]?
Its Activity is -2.9%.

And the Activity [15]?
The Activity was -2.3%.

And the concentration at 8 h [16]?
The concentration at 8 h was 70 ng/mL.

What about the clearance [17] of the same molecule?
Its clearance is 20.1 mL/min/kg.

What about the Activity [18] of the same molecule?
Its Activity is -0.3%.

And the inhibition [19]?
Its inhibition is -4.6%.

And the inhibition [20]?
Its inhibition is 71.2%.

And the Cmax [21]?
Its Cmax is 1410 ng/mL.

And the remaining at 0.5 h, 1 µM [22]?
The remaining at 0.5 h, 1 µM was 77.6%.

What about the Activity [23] of the same molecule?
The Activity was -0.2%.

And the inhibition [24]?
Its inhibition is 36.2%.

What about the inhibition [25] of the same molecule?
The inhibition was -2.1%.

And the inhibition [26]?
Its inhibition is 3.9%.

And the inhibition [27]?
Its inhibition is 59.8%.

And the concentration at 2 h [28]?
The concentration at 2 h was 138 ng/mL.

What about the inhibition [29] of the same molecule?
The inhibition was -0.6%.

What about the dose excreted [30] of the same molecule?
Its dose excreted is 0%.
